{"source": "patent US7235548B2", "about": "“Compounds and their use as positive AMPA receptor modulators” (NeuroSearch A/S, priority 1998, dated 2007)", "key": {"[1]": {"biological_target": "ionotropic quisqualate (AMPA) receptors", "test": "In vitro inhibition of 3H-AMPA binding", "conditions": "5 nM 3H-AMPA, rat cerebral cortex membranes, 30 min at 2° C.; read-out: IC50 (concentration of the test substance which inhibits the specific binding of 3H-AMPA by 50%)", "excerpt": "L-glutamate (GLU) is the major excitatory neurotransmitter in the mammalian central nervous system. From electrophysiological- and binding studies, there appear to be at least three subtypes of GLU receptors, tentatively named N-methyl-D-aspartate (NMDA)-, quisqualate- and kainate receptors. GLU receptor subtypes sensitive to quisqualate and kainate as a group are often referred to as non-NMDA receptors. Receptor binding studies using the labelled agonists ^3H-AMPA (α-amino-3-hydroxy-5-methyl-4-isoxazolepropionic acid) (for quisqualate receptors) and ^3H-kainate (for kainate receptors) have shown different antagonist selectivities and regional distribution. AMPA has been known for several years to be a potent and selective agonist at the traditionally named quisqualate receptors. Activation of quisqualate receptors by AMPA is associated with Na^+ influx and K^+ efflux leading to depolarization.\nThe non-NMDA receptors have recently been reclassified to include the quisqualate activated metabotropic receptor type, linked to the inositol triphosphate and diacylglycerate metabolism. […] Selective activation of the metabotropic type has been claimed for trans-ACPD. Recently, the potent and competitive non-NMDA receptor antagonists CNQX and NBQX have been described, and CNQX have been reported not to block the effect of quisqualate at the metabotropic receptor subtype. ^3H-AMPA is a selective radioligand for labelling the ionotropic quisqualate (AMPA) receptors.\nPreparations are performed at 0–4° C. unless otherwise indicated. Cerebral cortex from male Wistar rats (150–200 g) is homogenized for 5–10 sec in 20 ml Tris-HCl (30 mM, pH 7.4) using an Ultra-Turrax homogenizer. The suspension is centrifuged at 27,000×g for 15 min and the pellet is washed three times with buffer (centrifuged at 27,000×g for 10 min). The washed pellet is homogenized in 20 ml of buffer and incubated on a water bath (37° C.) for 30 min to remove endogenous glutamate and then centrifuged for 10 min at 27,000×g. The pellet is then homogenized in buffer and centrifuged at for 10 min at 27,000×g. The final pellet is resuspended in 30 ml buffer and the preparation is frozen and stored at −20° C.\nThe membrane preparation is thawed and centrifuged at 2° C. for 10 min at 27,000×g for 10 min. The pellet is washed twice with 20 ml 30 mM Tris-HCl containing 2.5 mM CaCl2, pH 7.4 using an Ultra-Turrax homogenizer and centrifuged for 10 min at 27,000×g. The final pellet is resuspended in 30 mM Tris-HCl containing 2.5 mM CaCl2 and 100 mM KSCN, pH 7.4 (100 ml per g of original tissue) and used for binding assays. Aliquots of 0.5 (0.2) ml are added to 25 (20) μl of test solution and 25(20) μl of ^3H-AMPA (5 nM, final concentration), mixed and incubated for 30 min at 2° C. Non-specific binding is determined using L-glutamate (0.6 mM, final concentration). After incubation the 550 μl samples are added 5 ml of ice-cold buffer and poured directly onto Whatman GF/C glass fibre filters under suction and immediately washed with 5 ml of ice-cold buffer. The 240 μl samples are filtered over glass fibre filter using a Skatron cell harvrester. The filters are washed with 3 ml ice-cold buffer. The amount of radioactivity on the filters is determined by conventional liquid scintillation counting. Specific binding is total binding minus non-specific binding.\nThe test value will be given as the IC50 (the concentration (μM) of the test substance which inhibits the specific binding of ^3H-AMPA by 50%)"}, "AMPA receptor": {"test_system": "AMPA receptor", "test": "Voltage clamp (whole cell patch clamp), current induced by AMPA in cultured mouse neocortical neurons", "type": "cell-based", "conditions": "for reversibility of the potentiation: after wash out of the compound; for potentiation of the current induced by application of 30 μM AMPA: holding voltage −60 mV", "experimental": "Experiments were performed in voltage clamp using conventional whole cell patch clamp methods (Hamill et al., 1981), essentially as described previously (Mathiesen et al., 1998). The following salt solutions were used (mM): NaCl (140), KCl (4), CaCl2 (2), MgCl2 (1), Sucrose (30), Tetrodotoxin (0.0003), Bicuculline Methiodide (0.005) and HEPES (10, pH 7.4). Intracellular solution (mM): CsCl (120), CsF (20), MgCl2 (2), EGTA (10), HEPES (10, pH=7.2).\nMouse neocortical neurons were cultured essentially as described by Drejer et al. (1987). Briefly, the forebrains from embryonic (E17) NMRI mice were removed under sterile conditions. The tissue was chopped in 0.4 mm cubes and the triturated with trypsin (12.5 μg/ml) and DNAse (2.5 μg/ml), 15 min, 37° C. The cells were suspended at a concentration of 1×10^6 cells/ml in a slightly modified DMEM which contained horse serum (10% (v/v)), penicillin (333 U/ml), paraaminobenzoic acid (1 mg/ml), L-glutamine (0.5 mM), insulin (0.08 U/ml) and KCl (23.8 mM). The cell suspension was subsequently inoculated into poly-L-lysine coated 35 mm Petri dishes (2 ml/dish). Glass coverslips (3.5 mm) were placed in the dishes before coating. After 24 hr in culture, the medium was replaced by freshly made medium containing 1% N2 supplement instead of serum.\nThe cells were kept in culture for 7–14 days at 37° C. (5% CO2/95% O2) before experiments were carried out.\nElectronics, programs and data acquisition: The amplifier used was the EPC-9 (HEKA-electronics, Lambrect, Germany) run by a Power Macintosh G3 computer via an ITC-16 interface. Experimental conditions were set with the Pulse-software accompanying the amplifier. Data were low pass filtered and sampled directly to hard-disk at a rate of 3 times the cut-off frequency.\nPipettes and electrodes: Pipettes were pulled from borosilicate glass (Modulohm, Copenhagen, Denmark) using a horizontal electrode puller (Zeitz-Instrumente, Augsburg, Germany). The pipette resistances were 1.7–2.4 MW in the salt solutions used in these experiments. The pipette electrode was a chloridized silver wire, and the reference was a silverchloride pellet electrode (In Vivo Metric, Healdsburg, USA) fixed to the experimental chamber. The electrodes were zeroed with the open pipette in the bath just prior to sealing.\nExperimental procedure: Coverslips were transferred to a […] experimental chamber mounted on the stage of an inverted microscope (IMT-2, Olympus) supplied with Nomarski optics. The neurons were continuously superfused with extracellular saline at a rate of 2.5 ml/min. After giga-seal formation (1–5 GW, success-rate≈90%) the whole cell configuration was attained by suction.\nThe cells were held at a holding voltage of −60 mV and at the start of each experiment the current was continuously measured for at least 30 sec to ensure a stable leak current. AMPA-containing solutions were delivered to the chamber through a custom-made gravity-driven flowpipe, the tip of which was placed approximately 50 μm from the cell. Application was triggered when the tubing connected to the flow pipe was compressed by a valve controlled by the Pulse-software. AMPA (30 μM) was applied for 1 sec every 45 sec. After obtainment of responses of a repeatable amplitude the compound to be tested was included in both the chamber and in the AMPA-containing solution. The compound was present until responses of a new repeatable was obtained.\nThe sample interval in all experiments was 310 μsec.\nAll experiments were performed at room temperature (20–25° C.)."}, "AMPA receptors": {"test_system": "AMPA receptors", "test": "AMPA evoked single neuron spike activity in rat hippocampus (iontophoretic application of AMPA), in vivo", "conditions": "10 mg kg^−1 i.v.", "excerpt": "Evaluation of the in vivo effects of positive AMPA modulators (PAMs) on the AMPA evoked spike activity in rat hippocampus. Hippocampal single neuron spike activity is strongly influenced by excitatory input, and iontophoretic application of AMPA induces spike activity in vivo in a dose-dependent manner ([…] et al. 1998). […] PAMs potentate AMPA receptor activation in vitro, and if this mechanism also operates in vivo, the i.v. injection of an PAM should enhance AMPA evoked spike activity. Thus, the aim of this study was to test the in vivo effect of a group of in vitro active PAMs. This have been done by studying their ability to enhances AMPA evoked spike activity after i.v. administration. Experiments were performed on male Wistar rats (M & B, Denmark) weighing 280-380 g, housed in two per cage with free access to food and water. […] Additional anaesthetic was given i.v. if the rat responded to a pinch of the back foot. The trachea was cannulated and the rats were placed in a stereotaxic frame and ventilated by a rodent ventilator (Ugo Basile, Comerio-Varese, Italy). Core body temperature was maintained at 37.5° C. by a DC heating pad. The left and dorsal part of the parietal bone was removed by craniotomy and the dura was withdrawn exposing the pia mater and underlying brain, covered with 0.9% NaCl. AMPA (Sigma, USA) was dissolved at 10 mM in 0.2 M NaCl. NMDA (Sigma, USA) was dissolved at 100 mM in 100 mM NaCl. Both solutions were adjusted to pH 7.5-8.0 with NaOH. COMPOUND 61 was dissolved in 200 mM CH3SO3^- Na^+ at a contration of 10 mM for iontophoretic application ([…]) and in isotonic glucose (278 mM) for i.v. administration. Cyclothiazide, COMPOUND 63, COMPOUND 56, COMPOUND 115 and COMPOUND 114 were all dissolved at in 5% chremophore solution at a concentration of 5 mg ml^-1. Evoked neuronal spike activity was analyzed on-line by a computer, saving single spikes and time of event. Neuronal spike activity (number of action potentials s^-1) was monitored on a pulse rate histogram together with indicators for AMPA, COMPOUND 61 and vehicle application. Extracellular recordings of single hippocampal neuron spikes were made with five-barrel glass microelectrodes (5B120F-6, World Precision Instruments Inc., Sarasota, Fla., USA) with a tip diameter of 10-12 μm. The individual barrels were filled with 5 M NaCl (recording), 400 mM NaCl (current balancing), 10 mM COMPOUND 61 in 200 mM CH3SO3^- Na^+ (pH 4.7), 200 mM CH3SO3^- Na^+ (pH 4.7, Vehicle), and the last barrel was filled with the AMPA. Experiments were performed on hippocampal neurons (A=5.5-6.5 mm, L=1.5-2.0 mm, H=2.0-3.0 mm, according to Paxinos & Watson, 1986). Neuronal spike activity was evoked by iontophoretic application of AMPA for periods of 10 to 15 s with 1.5 min intervals. Single neuron spike activity was amplified 5000 times with a bandwidth of 0.3 and 3 kHz (CyberAmp 320 with a Al 402 x50 smartprobe, Axon Instruments, California, USA). On-line and off-line analyses were performed by the Spike2 program with a 1401 plus interface (Cambridge Electronic Design Limited, England). The computer program also recorded mean arterial blood pressure and monitored and controlled iontophoretic application. AMPA was ejected into hippocampus in regular cycles of 100-105 s. […] Recording of neuronal spike activity was continued for at least 45 min after intravenous injection. The PAM reactivity was tested by microiontophoretic application of COMPOUND 61 (20 nA, FIG.)."}}}
{"smiles": "Cc1cc2c(cc1S(N)(=O)=O)S(=O)(=O)NC(C1CCCCC1)N2", "note": "(centres unmarked) [Compound 113, 3-Cyclohexyl-6-methyl-7-sulfamoyl-1,2,3,4-tetrahydro-1,2,4-benzothiadiazine-1,1-dioxide]", "values": [{"measurement": "IC50", "setting": "[1]", "value": 13, "unit": "µM"}, {"measurement": "melting point", "value": "231 to 233", "unit": "°C"}]}
{"smiles": "O=S1(=O)NC(C2CCCCC2)Nc2ccc(S(=O)(=O)N3CCCCC3)cc21", "note": "(centres unmarked) [Compound 56, 3-Cyclohexyl-7-piperidinosulfonyl-1,2,3,4-tetrahydro-1,2,4-benzothiadiazine-1,1-dioxide]", "values": [{"measurement": "reversibility of the potentiation", "setting": "AMPA receptor", "value": "reversible"}, {"measurement": "persistence of the effect after wash out", "setting": "AMPA receptor; compound 3 μM", "value": "persits for several minutes after wash out"}, {"measurement": "potentiation of the current induced by application of 30 μM AMPA", "setting": "AMPA receptor; compound 3 μM", "value": "potentiated"}, {"measurement": "onset of the enhancement after i.v. administration", "setting": "AMPA receptors", "value": "approximately 10 min"}, {"measurement": "AMPA evoked spike activity", "setting": "AMPA receptors; rat hippocampus", "value": "enhancement"}]}
{"smiles": "NC(=O)c1ccc2c(c1)S(=O)(=O)NC(C1CCCCC1)N2", "note": "(centres unmarked) [Compound 15, 3-Cyclohexyl-7-carbamoyl-1,2,3,4-tetrahydro-1,2,4-benzothiadiazine-1,1-dioxide]", "values": [{"measurement": "IC50", "setting": "[1]", "value": 39, "unit": "µM"}]}
{"smiles": "CC(=O)c1ccc2c(c1)S(=O)(=O)NC(C1CCCCC1)N2", "note": "(centres unmarked) [Compound 13, 3-Cyclohexyl-7-acetyl-1,2,3,4-tetrahydro-1,2,4-benzothiadiazine-1,1-dioxide]", "values": [{"measurement": "IC50", "setting": "[1]", "value": 22, "unit": "µM"}]}
{"smiles": "CN(C)S(=O)(=O)c1ccc2c(c1)S(=O)(=O)NC(C1CCCCC1)N2", "note": "(centres unmarked) [Compound 47, 3-Cyclohexyl-7-dimethylaminosulfonyl-1,2,3,4-tetrahydro-1,2,4-benzothiadiazine-1,1-dioxide]", "values": [{"measurement": "IC50", "setting": "[1]", "value": 5.3, "unit": "µM"}]}
{"smiles": "Cc1cc2c(cc1-c1ccccn1)S(=O)(=O)NC(C1CCCCC1)N2", "note": "(centres unmarked) [Compound 111, 3-Cyclohexyl-6-methyl-7-(2′-pyridyl)-1,2,3,4-tetrahydro-1,2,4-benzothiadiazine-1,1-dioxide]", "values": [{"measurement": "reversibility of the potentiation", "setting": "AMPA receptor", "value": "reversible"}, {"measurement": "potentiation of the current induced by application of 30 μM AMPA", "setting": "AMPA receptor; compound 10 μM", "value": "potentiated"}]}
{"smiles": "O=S1(=O)NC(C2CC3C=CC2C3)Nc2ccc(S(=O)(=O)N3CCCCC3)cc21", "note": "(centres unmarked) [Compound 57, 3-Bicyclo[2.2.1]hept-5′-en-2′-yl-7-piperidinosulfonyl-1,2,3,4-tetrahydro-1,2,4-benzothiadiazine-1,1-dioxide]", "values": [{"measurement": "IC50", "setting": "[1]", "value": 26, "unit": "µM"}]}
{"smiles": "O=S1(=O)NC(C2CCCCC2)Nc2ccc(S(=O)(=O)N3CC=CCC3)cc21", "note": "(centres unmarked) [Compound 58, 3-Cyclohexyl-7-(1′,2′,3′,6′-tetrahydropiperidino)sulfonyl-1,2,3,4-tetrahydro-1,2,4-benzothiadiazine-1,1-dioxide]", "values": [{"measurement": "IC50", "setting": "[1]", "value": 3.4, "unit": "µM"}]}
